According to US20080262080A1, “Allergy Suppressive Agent” (KYUSHU UNIVERSITY, NATIONAL UNIVERSITY CORPORATION, priority 2004, published 2008):

What was measured:
[1] = test system: FcεRI α- and γ-chains mRNA; experiment: FcεRI mRNA expression in human peripheral blood basophils (RT-PCR); type: cell-based; conditions: 25 µM of chrysin, 24 hours, vs DMSO
Description: Peripheral blood basophils (1×10^6 cells/mL) collected from the vein of a donor were incubated in a medium comprising 25 µM of chrysin or dimethyl sulfoxide (DMSO) for 24 hours. Then, RNA was extracted and the mRNA expression level of each of the FcεRI α- and γ-chains was examined by the RT-PCR method. Venous blood was collected from the forearm elbow of a donor. Then, peripheral blood lymphocytes were separated and purified using Lymphocyte Separation Medium (ICN Biomedical Inc.) and peripheral basophils were separated and purified by the density gradient centrifugation method using Percoll (Amersham Biosciences). The basophils (1×10^6 cells/mL) were incubated in 5% FCS-RPMI 1640 medium, to which 25 µM of chrysin or a solvent dimethylsulfoxide (DMSO) had been added, for 24 hours. RNA was extracted and the mRNA expression levels of FcεRI α- and γ-chains were examined by the RT-PCR method as in Example 1.

[2] = test system: KU812 cells; experiment: A23187-induced histamine release from human basophil cell line KU812; type: cell-based; conditions: 25 μM of chrysin, 5 μM A23187, vs control free from chrysin
Description: Human basophil cell line KU812 cells (5×10^6 cells/mL) were incubated in Tyrode buffer comprising 1 mM of CaCl2, to which 25 μM of chrysin had been added, and then stimulated with A23187. Histamine released from the cells and histamine cumulated in the cells were quantified to thereby determine the histamine release rate. Comparison was made with a control system free from chrysin.
Human basophil cell line KU812 cells (5×10^5 cells/mL) were incubated in Tyrode buffer (137 mM NaCl, 2.7 mM KCl, 1.8 mM CaCl2, 1.1 mM MgCl2, 1.19 mM NaHCO3, 0.4 mM NaH2PO4, pH 7.4) comprising 25 μM of chrysin and 1 mM of CaCl2 for 20 min at 37° C. After adding 5 μM of A23187 (Sigma Chemical Co.), the incubation was continued for an additional 20 min at 37° C. […] In a sample for quantifying histamine cumulated in cells, the cells were centrifuged at 300×g for 5 min, ultrasonically disrupted for about 1 min and then centrifuged at 12,000×g for 5 min and 1 mL of the supernatant was collected. To perform fluorescence measurement under alkaline conditions, a complex of histamine and o-phthaldehyde (Wako) was formed and partly extracted. […] The fluorescent intensity was measured using a fluorophotometer RF-1500 at an excitation wavelength of 360 nm and a fluorescent wavelength of 450 nm.

## O=c1cc(-c2ccccc2)oc2cc(O)cc(O)c12 [Chrysin, 5,7-dihydroxyflavone]
[1]
  FcεRI α-chain mRNA expression level: strongly lowered
  FcεRI γ-chain mRNA expression level: lowered
[2]
  histamine release induced by A23187: significantly lowered
